Results reported in ChEMBL document CHEMBL1201862, “PubChem BioAssay data set” (2004).
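48-hour exposure; five concentrations; linearly interpolated endpoints. GI50 marks 50% less growth.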 Active and inactive are the calls of the source. Rule as the data show it: active = GI50 up to about 1.1 µM and inactive = higher.

What was measured:
Test in all cases: NCI anticancer screen, dose series, 48 h
HOP-92 = tested on: HOP-92
CCRF-CEM = tested on: CCRF-CEM
K562 = tested on: K562
MDA-N = tested on: MDA-N
TK-10 = tested on: TK-10
EKVX = tested on: EKVX
SK-OV-3 = tested on: SK-OV-3
IGROV-1 = tested on: IGROV-1
BT-549 = tested on: BT-549
M19-MEL = tested on: M19-MEL
NCI-H23 = tested on: NCI-H23
SNB-75 = tested on: SNB-75
A498 = tested on: A498
COLO 205 = tested on: COLO 205
UO-31 = tested on: UO-31
M14 = tested on: M14
SNB-19 = tested on: SNB-19
PC-3 = tested on: PC-3
SK-MEL-5 = tested on: SK-MEL-5
A549 = tested on: A549

For `COc1ccc2c(NCCCCCCNc3c4ccccc4nc4cc(OC)ccc34)c3ccccc3nc2c1`, the GI50 (HOP-92) was 100 nM (active), the GI50 (CCRF-CEM) was 44.7 nM (active) and the GI50 (K562) was 33.4 nM (active). For the same molecule, the GI50 (MDA-N) was 142 nM (active), the GI50 (TK-10) was 385 nM (active) and the GI50 (EKVX) was 579 nM (active). The GI50 (SK-OV-3) was 245 nM (active), the GI50 (IGROV-1) was 75 nM (active) and the GI50 (BT-549) was 1300 nM (inactive). The GI50 (M19-MEL) was 48.4 nM (active), the GI50 (NCI-H23) was 104 nM (active) and the GI50 (SNB-75) was 175 nM (active). The GI50 (A498) was 516 nM (active), the GI50 (COLO 205) was 75.3 nM (active) and the GI50 (UO-31) was 12900 nM (inactive). The GI50 (M14) was 480 nM (active), the GI50 (SNB-19) was 218 nM (active) and the GI50 (PC-3) was 88.5 nM (active). The GI50 (SK-MEL-5) was 1010 nM (active) and the GI50 (A549) was 71.6 nM (active).
In the case of `O=C1C(Cl)=C(N2CCN(C3=C(Cl)C(=O)c4ccccc4C3=O)CC2)C(=O)c2ccccc21`, the GI50 (HOP-92) is reported as 1040 nM (active), the GI50 (CCRF-CEM) is reported as 162 nM (active) and the GI50 (K562) is reported as 121 nM (active). For the same molecule, the GI50 (MDA-N) was 1860 nM (inactive), the GI50 (TK-10) was 1960 nM (inactive) and the GI50 (EKVX) was 1790 nM (inactive). The GI50 (SK-OV-3) was 14100 nM (inactive), the GI50 (IGROV-1) was 1910 nM (inactive) and the GI50 (BT-549) was 1730 nM (inactive). For the same molecule, the GI50 (M19-MEL) was 1530 nM (inactive), the GI50 (NCI-H23) was 1580 nM (inactive) and the GI50 (SNB-75) was 2860 nM (inactive). The GI50 (A498) was 3490 nM (inactive), the GI50 (COLO 205) was 1690 nM (inactive) and the GI50 (UO-31) was 1450 nM (inactive). For the same molecule, the GI50 (M14) was 1530 nM (inactive), the GI50 (SNB-19) was 14900 nM (inactive) and the GI50 (PC-3) was 7310 nM (inactive). For the same molecule, the GI50 (SK-MEL-5) was 1790 nM (inactive) and the GI50 (A549) was 12100 nM (inactive).
In the case of `Cc1ccc(C(=O)N(C(C)C)C(C)C)cc1/N=N/N(C)C`, the GI50 (HOP-92) is reported as > 64600 nM (inactive), the GI50 (CCRF-CEM) is reported as > 10000 nM (inactive) and the GI50 (K562) is reported as 38800 nM (inactive). The GI50 (MDA-N) was > 100000 nM (inactive), the GI50 (TK-10) was > 100000 nM (inactive) and the GI50 (EKVX) was > 100000 nM (inactive). For the same molecule, the GI50 (SK-OV-3) was > 100000 nM (inactive), the GI50 (IGROV-1) was > 100000 nM (inactive) and the GI50 (BT-549) was > 100000 nM (inactive). For the same molecule, the GI50 (M19-MEL) was > 100000 nM (inactive), the GI50 (NCI-H23) was 41000 nM (inactive) and the GI50 (COLO 205) was > 100000 nM (inactive). For the same molecule, the GI50 (UO-31) was > 61400 nM (inactive), the GI50 (M14) was > 100000 nM (inactive) and the GI50 (SNB-19) was > 100000 nM (inactive). The GI50 (PC-3) was > 100000 nM (inactive), the GI50 (SK-MEL-5) was > 100000 nM (inactive) and the GI50 (A549) was > 100000 nM (inactive).
